Tests used:
[1] = system: L1210 (mouse lymphocytic leukemia) cells; assay: Cell growth inhibition assay, L1210; format: cell-based; conditions: 72 hours incubation, phosphatase assay
Procedure: (§1) Compounds were tested for their cell growth inhibition of L1210 (ATCC no. CCL-219, mouse lymphocytic leukemia) cells, HCT116 (ATCC no. CCL-247, human colorectal carcinoma) cells, and HCT116/VM46 (a vinblastine-resistant strain of HCT116) cells in culture. A population of cells (>1×10^6 cells/mL as determined with a hemocytometer) was diluted with an appropriate amount of Dulbecco's Modified Eagle Medium (DMEM, Gibco) containing 10% fetal bovine serum (FBS, Gibco) to a final concentration of 30000 cells/mL.
(§2) To each well of a 96-well plate (Corning Costar), 100 μL of the cell media solution was added with a multichannel pipet. The cultures were incubated at 37° C. in an atmosphere of 5% CO2 and 95% humidified air for 24 hours. The test compounds were added to the plate as follows: test substances were diluted in DMSO to a concentration of 1 mM and 10-fold serial dilutions were performed on a separate 96-well plate. Fresh culture medium (100 μL) was added to each well of cells to constitute 200 μL of medium per well followed by 2 μL of each test agent. Compounds were tested in duplicate (n=2-18 times) at six concentrations between 0-1000 nM or 0-10000 nM. Following addition, cultures were incubated for an additional 72 hours.
(§3) A phosphatase assay was used to establish the IC50 values as follows: the media in each cell was removed and 100 μL of phosphatase solution (100 mg phosphatase substrate in 30 mL of 0.1 M NaOAc, pH 5.5, 0.1% Triton X-100 buffer) was added to each well. The plates were incubated at 37° C. for either 5 minutes (L1210) or 15 minutes (HCT116 and HCT116/VM46). After the given incubation time, 50 μL of 0.1 N NaOH was added to each well and the absorption at 405 nm was determined using a 96 well plate reader. As the absorption is directly proportional to the number of living cells, the IC50 values were calculated and the reported values represent of the average of 4-36 determinations (SD±10%).

[2] = system: HCT116 (human colorectal carcinoma) cells; assay: cells; format: cell-based; conditions: 72 hours incubation, phosphatase assay; read-out: IC50, HCT116
Procedure: as §1, §2, §3

[3] = system: HCT116/VM46 (a vinblastine-resistant strain of HCT116) cells; assay: Cell growth inhibition assay, HCT116/VM46; format: cell-based, human; conditions: 72 hours incubation, phosphatase assay; Pgp-overexpressing resistant line
Procedure: as §1, §2, §3

Compound `CC[C@]1(NC(=O)N2CCCCCCC2)C[C@H]2CN(CCc3c([nH]c4ccccc34)[C@@](C(=O)OC)(c3cc4c(cc3OC)N(C)[C@H]3[C@@](O)(C(=O)OC)[C@H](OC(C)=O)[C@]5(CC)C=CCN6CC[C@]43[C@@H]65)C2)C1` [Compound 25] has an IC50 [1] of 60000 pM, an IC50 [2] of 35000 pM and an IC50 [3] of 330000 pM.

For `CC[C@]1(NC(=O)N2Cc3ccc(NC(=O)c4cncnc4)cc3C2)C[C@H]2CN(CCc3c([nH]c4ccccc34)[C@@](C(=O)OC)(c3cc4c(cc3OC)N(C)[C@H]3[C@@](O)(C(=O)OC)[C@H](OC(C)=O)[C@]5(CC)C=CCN6CC[C@]43[C@@H]65)C2)C1` [Compound 59], the IC50 [1] was 510 pM, the IC50 [2] was 600 pM and the IC50 [3] was 8800 pM.

In the case of `CC[C@]1(NC(=O)N2Cc3ccc(NC(=O)c4ccc(OC(F)(F)F)cc4)cc3C2)C[C@H]2CN(CCc3c([nH]c4ccccc34)[C@@](C(=O)OC)(c3cc4c(cc3OC)N(C)[C@H]3[C@@](O)(C(=O)OC)[C@H](OC(C)=O)[C@]5(CC)C=CCN6CC[C@]43[C@@H]65)C2)C1` [Compound 52], the IC50 [1] is reported as 4300 pM, the IC50 [2] is reported as 5300 pM and the IC50 [3] is reported as 75000 pM.

For `CC[C@]1(NC(=O)N2CCC(F)C2)C[C@H]2CN(CCc3c([nH]c4ccccc34)[C@@](C(=O)OC)(c3cc4c(cc3OC)N(C)[C@H]3[C@@](O)(C(=O)OC)[C@H](OC(C)=O)[C@]5(CC)C=CCN6CC[C@]43[C@@H]65)C2)C1` (single isomer, unassigned) [Compound 18], the IC50 [1] was 600 pM, the IC50 [2] was 610 pM and the IC50 [3] was 20000 pM.

With `CCCCCC(=O)Nc1ccc2c(c1)CN(C(=O)N[C@@]1(CC)C[C@H]3CN(CCc4c([nH]c5ccccc45)[C@@](C(=O)OC)(c4cc5c(cc4OC)N(C)[C@H]4[C@@](O)(C(=O)OC)[C@H](OC(C)=O)[C@]6(CC)C=CCN7CC[C@]54[C@@H]76)C3)C1)C2` [Compound 45] the IC50 [1] was 440 pM, the IC50 [2] was 620 pM and the IC50 [3] was 13000 pM.

Compound `CC[C@]1(NC(=O)N2Cc3ccc(Br)cc3C2)C[C@H]2CN(CCc3c([nH]c4ccccc34)[C@@](C(=O)OC)(c3cc4c(cc3OC)N(C)[C@H]3[C@@](O)(C(=O)OC)[C@H](OC(C)=O)[C@]5(CC)C=CCN6CC[C@]43[C@@H]65)C2)C1` [Compound 33] has an IC50 [1] of 620 pM, an IC50 [2] of 560 pM and an IC50 [3] of 6400 pM.

`CC[C@]1(NC(=O)N2Cc3ccc(NC(=O)c4cccnc4)cc3C2)C[C@H]2CN(CCc3c([nH]c4ccccc34)[C@@](C(=O)OC)(c3cc4c(cc3OC)N(C)[C@H]3[C@@](O)(C(=O)OC)[C@H](OC(C)=O)[C@]5(CC)C=CCN6CC[C@]43[C@@H]65)C2)C1` [Compound 56] was tested, and the IC50 [1] was 480 pM, the IC50 [2] was 330 pM and the IC50 [3] was 6600 pM.

With `CCC1(NC(=O)N2CCC(Br)C2)CC2CN(CCc3c([nH]c4ccccc34)C(C(=O)OC)(c3cc4c(cc3OC)N(C)C3C(O)(C(=O)OC)C(OC(C)=O)C5(CC)C=CCN6CCC43C65)C2)C1` (mixture of isomers) [Compound 19] the IC50 [1] was 3100 pM, the IC50 [2] was 900 pM and the IC50 [3] was 25000 pM.

Compound `CC[C@]1(NC(=O)N2CCC(C#N)C2)C[C@H]2CN(CCc3c([nH]c4ccccc34)[C@@](C(=O)OC)(c3cc4c(cc3OC)N(C)[C@H]3[C@@](O)(C(=O)OC)[C@H](OC(C)=O)[C@]5(CC)C=CCN6CC[C@]43[C@@H]65)C2)C1` (single isomer, unassigned) [Compound 21] has an IC50 [1] of 5100 pM, an IC50 [2] of 1800 pM and an IC50 [3] of 60000 pM.

`CCCNc1ccc2c(c1)CN(C(=O)N[C@@]1(CC)C[C@H]3CN(CCc4c([nH]c5ccccc45)[C@@](C(=O)OC)(c4cc5c(cc4OC)N(C)[C@H]4[C@@](O)(C(=O)OC)[C@H](OC(C)=O)[C@]6(CC)C=CCN7CC[C@]54[C@@H]76)C3)C1)C2` [Compound 39] gave an IC50 [1] of 400 pM, an IC50 [2] of 310 pM and an IC50 [3] of 4600 pM.

`CC[C@]1(NC(=O)N2Cc3ccc(NC(=O)c4ccccn4)cc3C2)C[C@H]2CN(CCc3c([nH]c4ccccc34)[C@@](C(=O)OC)(c3cc4c(cc3OC)N(C)[C@H]3[C@@](O)(C(=O)OC)[C@H](OC(C)=O)[C@]5(CC)C=CCN6CC[C@]43[C@@H]65)C2)C1` [Compound 55] was tested, and the IC50 [1] was 370 pM, the IC50 [2] was 490 pM and the IC50 [3] was 3600 pM.

In the case of `CC[C@]1(NC(=O)N2Cc3ccc(NC(=O)C(C)(C)C)cc3C2)C[C@H]2CN(CCc3c([nH]c4ccccc34)[C@@](C(=O)OC)(c3cc4c(cc3OC)N(C)[C@H]3[C@@](O)(C(=O)OC)[C@H](OC(C)=O)[C@]5(CC)C=CCN6CC[C@]43[C@@H]65)C2)C1` [Compound 44], the IC50 [1] is reported as 390 pM, the IC50 [2] is reported as 470 pM and the IC50 [3] is reported as 5300 pM.

With `CC[C@]1(NC(=O)N2Cc3ccc(N)cc3C2)C[C@H]2CN(CCc3c([nH]c4ccccc34)[C@@](C(=O)OC)(c3cc4c(cc3OC)N(C)[C@H]3[C@@](O)(C(=O)OC)[C@H](OC(C)=O)[C@]5(CC)C=CCN6CC[C@]43[C@@H]65)C2)C1` [Compound 36] the IC50 [1] was 470 pM, the IC50 [2] was 420 pM and the IC50 [3] was 6800 pM.

Compound `C=CC(=O)Nc1ccc2c(c1)CN(C(=O)N[C@@]1(CC)C[C@H]3CN(CCc4c([nH]c5ccccc45)[C@@](C(=O)OC)(c4cc5c(cc4OC)N(C)[C@H]4[C@@](O)(C(=O)OC)[C@H](OC(C)=O)[C@]6(CC)C=CCN7CC[C@]54[C@@H]76)C3)C1)C2` [Compound 46] has an IC50 [1] of 380 pM, an IC50 [2] of 300 pM and an IC50 [3] of 7100 pM.

`CC[C@]1(NC(=O)N2CCc3ccccc3CC2)C[C@H]2CN(CCc3c([nH]c4ccccc34)[C@@](C(=O)OC)(c3cc4c(cc3OC)N(C)[C@H]3[C@@](O)(C(=O)OC)[C@H](OC(C)=O)[C@]5(CC)C=CCN6CC[C@]43[C@@H]65)C2)C1` [Compound 27] was tested, and the IC50 [1] was 590 pM, the IC50 [2] was 690 pM and the IC50 [3] was 6200 pM.

With `CC[C@]1(NC(=O)N2Cc3ccc(C)cc3C2)C[C@H]2CN(CCc3c([nH]c4ccccc34)[C@@](C(=O)OC)(c3cc4c(cc3OC)N(C)[C@H]3[C@@](O)(C(=O)OC)[C@H](OC(C)=O)[C@]5(CC)C=CCN6CC[C@]43[C@@H]65)C2)C1` [Compound 30] the IC50 [1] was 410 pM, the IC50 [2] was 440 pM and the IC50 [3] was 5900 pM.

With `CC[C@]1(NC(=O)N2Cc3ccc(NC(=O)c4ccnnc4)cc3C2)C[C@H]2CN(CCc3c([nH]c4ccccc34)[C@@](C(=O)OC)(c3cc4c(cc3OC)N(C)[C@H]3[C@@](O)(C(=O)OC)[C@H](OC(C)=O)[C@]5(CC)C=CCN6CC[C@]43[C@@H]65)C2)C1` [Compound 62] the IC50 [1] was 690 pM, the IC50 [2] was 640 pM and the IC50 [3] was 50000 pM.

In the case of `CC[C@]1(NC(=O)N2Cc3ccc(C(F)(F)F)cc3C2)C[C@H]2CN(CCc3c([nH]c4ccccc34)[C@@](C(=O)OC)(c3cc4c(cc3OC)N(C)[C@H]3[C@@](O)(C(=O)OC)[C@H](OC(C)=O)[C@]5(CC)C=CCN6CC[C@]43[C@@H]65)C2)C1` [Compound 34], the IC50 [1] is reported as 590 pM, the IC50 [2] is reported as 670 pM and the IC50 [3] is reported as 6200 pM.

`CCC1(NC(=O)N2CCC(OC)C2)CC2CN(CCc3c([nH]c4ccccc34)C(C(=O)OC)(c3cc4c(cc3OC)N(C)C3C(O)(C(=O)OC)C(OC(C)=O)C5(CC)C=CCN6CCC43C65)C2)C1` (mixture of isomers) [Compound 16] showed an IC50 [1] of 3300 pM, an IC50 [2] of 1000 pM and an IC50 [3] of 25000 pM.

Compound `CC[C@]1(NC(=O)N2Cc3ccc(NC(=O)c4ccc(C(C)C)cc4)cc3C2)C[C@H]2CN(CCc3c([nH]c4ccccc34)[C@@](C(=O)OC)(c3cc4c(cc3OC)N(C)[C@H]3[C@@](O)(C(=O)OC)[C@H](OC(C)=O)[C@]5(CC)C=CCN6CC[C@]43[C@@H]65)C2)C1` [Compound 53] has an IC50 [1] of 2900 pM, an IC50 [2] of 4200 pM and an IC50 [3] of 60000 pM.

In the case of `CC[C@]1(NC(=O)N2Cc3ccc(NC(=O)c4ccncc4)cc3C2)C[C@H]2CN(CCc3c([nH]c4ccccc34)[C@@](C(=O)OC)(c3cc4c(cc3OC)N(C)[C@H]3[C@@](O)(C(=O)OC)[C@H](OC(C)=O)[C@]5(CC)C=CCN6CC[C@]43[C@@H]65)C2)C1` [Compound 57], the IC50 [1] is reported as 270 pM, the IC50 [2] is reported as 280 pM and the IC50 [3] is reported as 10400 pM.

With `CC[C@]1(NC(=O)N2Cc3ccc(NC)cc3C2)C[C@H]2CN(CCc3c([nH]c4ccccc34)[C@@](C(=O)OC)(c3cc4c(cc3OC)N(C)[C@H]3[C@@](O)(C(=O)OC)[C@H](OC(C)=O)[C@]5(CC)C=CCN6CC[C@]43[C@@H]65)C2)C1` [Compound 37] the IC50 [1] was 450 pM, the IC50 [2] was 430 pM and the IC50 [3] was 4600 pM.

For `CC[C@]1(NC(=O)N2Cc3ccc(F)cc3C2)C[C@H]2CN(CCc3c([nH]c4ccccc34)[C@@](C(=O)OC)(c3cc4c(cc3OC)N(C)[C@H]3[C@@](O)(C(=O)OC)[C@H](OC(C)=O)[C@]5(CC)C=CCN6CC[C@]43[C@@H]65)C2)C1` [Compound 31], the IC50 [1] was 630 pM, the IC50 [2] was 520 pM and the IC50 [3] was 5200 pM.

`CC[C@]1(NC(=O)N2Cc3ccc(NC(=O)C(C)C)cc3C2)C[C@H]2CN(CCc3c([nH]c4ccccc34)[C@@](C(=O)OC)(c3cc4c(cc3OC)N(C)[C@H]3[C@@](O)(C(=O)OC)[C@H](OC(C)=O)[C@]5(CC)C=CCN6CC[C@]43[C@@H]65)C2)C1` [Compound 43] showed an IC50 [1] of 390 pM, an IC50 [2] of 490 pM and an IC50 [3] of 6400 pM.

Reference: US10975101B2, “Ultra-potent vinca alkaloids: added molecular complexity further disrupts the tublin dimer-dimer interface” (priority 2016, dated 2021)
